Laboratory results taken from patent US12198788B2, “System for detecting an intraoral disease and determining a personalized treatment scheme and method of doing same” (priority 2017, dated 2025).

Key:
[1] = system: dental plaque microbes; assay: Culture of dental plaque microbes, streak applied to inoculum, 2 days incubation (FIG. 5); type: cell-based; details: 2 days of incubation
[2] = system: dental pulp tissue (dental pulp extraction with chronic pulpitis); assay: Live bacterial cell counting after cannabinoid treatment, dental pulp tissue; type: cell-based, human
Description: (§1) Summary: The method includes: • a. randomized sampling of oral plaque biofilm from different consumers with 0-+4 DPSI, dental pulp extraction with chronic pulpitis; • b. cultivation of the samples in incubator with 37° C., for 1 day. The colonies underwent treatment with different types of compounds CBC, CBD, CBG, CBGA, CBN for 5 minutes; • c. staining with fluorescent special dyes for live bacterial cells, following the cannabinoid compounds' treatment and using one referral without cannabinoids treatment; • d. mounting on 6 channel micro slide dishes with 0.1 high; • e. imaging with Cytetion 5 Biotek microscope on 40 magnification, analyzing and running live cell counting.
Experimental methods: FIG. 6 depicts the steps of the methodology used in this protocol. The methodology includes the following steps: • a. Sample cultivation: Samples are collected with Flexi Grip 1702 Paro interdental brush. Cultivation on AGAR Petri Dish 100/15 mm incubated for 24 hours in 37° C. • b. Compound Treatment: The colonies are treated with 25%, 12.5% dilutions from 5 different type extracts from grower A+B. 0.5 μL compound were place in each vial, 3 colony spots were added, the mixture was agitated in centrifuge with 6-8.000 rpm for 1.5 min and suspended in 500 μL PBS. • c. Staining Mounting: Staining kit Bacstain—CTC Rapid Staining kit BS02 was used. All 5 samples and 1 referral were stained. […]

[3] = system: human oral biofilms (dental plaque); assay: Live bacterial cell counting (CTC staining, Cytation 5 imaging) after cannabinoid treatment of dental plaque colonies; type: cell-based
Description: This study evaluates different extracts/compounds on different types of human oral biofilms that normally are plaque-generating, further inducing light to severe periodontal diseases, as scored by DPSI (Dutch periodontic screening index).
as §1, with “counting. […]” for “counting.”
The same procedure was employed on the second slide with the cells treated with 25% dilution of the cannabinoid of grower B. Accordingly slide 3 had the cells from grower A with 12.5% dilution and slide 4 had the cells 12.5% dilution from grower B. • d. […] Imaging modes include fluorescence, brightfield, color brightfield and phase contrast for a broad range of applications including live cell imaging, phenotypic assays, and 3D spheroids. […]

[4] = system: dental bacteria taken from various patients (oral flora); assay: In vitro determination of sensitivity of dental biofilm flora from individual patients to cannabinoid test panels; type: cell-based
Text: Methods of the present invention are hereby exemplified. The trial included two stages: • a. Stage 1: In vitro determination of sensitivity of dental biofilm flora from individual patients to cannabinoid test panels. • b. Stage 2: Effectiveness of toothpaste compounded to individual patient's best cannabinoid panel formulations. Stage 1: In Vitro Determination of Sensitivity of Dental Biofilm Flora from Individual Patients to Cannabinoid Test Panels.
Ten (10) subjects (patients A-J) were involved in the trial. Dental biofilm was collected of these subjects by means of swabs, scrapes and other devices. The bacteria of this dental biofilm were characterized by conventional methods such as growth on selective media, microscopic examination and lab on-chip-laser analysis (e.g. Parochip).
Patient's bacteria from patients A-J were tested in vitro on substrates seeded with a panel of cannabinoids as illustrated in table 1 below:
Column Panels: • 1=CBDA; • 2=CBDA+CBNA; • 3=CBDA+CBNA+CBGA; • 4=CBDA+CBNA+CBGA+CBCA; • 5=CBDA+CBNA+CBGA+CBCA+CBNDA; • 6=Chlorohexadine control, and • 7=control with no antiseptic.
Results of in vitro testing are defined in terms of efficacy of panel cannabinoids in in vitro suppressing oral flora, in increasing scale of: • −, +, ++, +++, ++++, +++++

Row | SMILES | bacterial growth at streak applied to inoculum [1] | reduction from the live bacterial cells [2] | most efficient compound on the plaque of the consumer ([3]; 25% dilution, grower A, FIG. 10) | reduction from the live bacterial cells ([3]; dental plaque) | effectiveness against the flora (in words) ([4]; flora of patient B) | in vitro effectiveness of cannabinoids on dental bacteria ([4]; oral flora sample of patient A) | in vitro effectiveness of cannabinoids on dental bacteria ([4]; oral flora sample of patient B) | in vitro effectiveness of cannabinoids on dental bacteria ([4]; oral flora sample of patient C) | in vitro effectiveness of cannabinoids on dental bacteria ([4]; oral flora sample of patient D) | in vitro effectiveness of cannabinoids on dental bacteria ([4]; oral flora sample of patient E) | in vitro effectiveness of cannabinoids on dental bacteria ([4]; oral flora sample of patient F) | in vitro effectiveness of cannabinoids on dental bacteria ([4]; oral flora sample of patient G) | in vitro effectiveness of cannabinoids on dental bacteria ([4]; oral flora sample of patient H) | in vitro effectiveness of cannabinoids on dental bacteria ([4]; oral flora sample of patient I) | in vitro effectiveness of cannabinoids on dental bacteria ([4]; oral flora sample of patient J)
1 | C=C(C)[C@@H]1CCC(C)=C[C@H]1c1c(O)cc(CCCCC)cc1O [CBD, Cannabidiol] | no bacterial growth | 92% |  |  |  |  |  |  |  |  |  |  |  |  | 
2 | CCCCCc1cc(O)c(C/C=C(\C)CCC=C(C)C)c(O)c1C(=O)O [CBGA, Cannabigerolic acid] |  |  | most efficient | 95% |  |  |  |  |  |  |  |  |  |  | 
3 | C=C(C)[C@@H]1CCC(C)=C[C@H]1c1c(O)cc(CCCCC)c(C(=O)O)c1O [Panel 1, Cannabidiolic acid] |  |  |  |  | effective | ++ | +++++ | ++++ | + | +++ | − | +++++ | ++ | − | −
4 | [H]/N=C(\N/C(=N/[H])NCCCCCCNC(=N)NC(=N)Nc1ccc(Cl)cc1)Nc1ccc(Cl)cc1 [Panel 6, Chlorhexidine, reference compound] |  |  |  |  |  | ++ | ++ | + | ++ | − | − | +++ | + | ++ | −
